Measurements taken from patent US10441562B2, “Aromatic farnesyl compound and application thereof” (INSTITUTE OF MICROBIOLOGY, CHINESE ACADEMY OF SCIENCES, priority 2015, dated 2019).
Marks after values point to notes of the source that are not given here.

Experiments:
α-glucosidase = biological target: T1, α-glucosidase (Saccharomyces cerevisiae, UniProt P53341); experiment: α-glucosidase inhibitory activity test in vitro; type: biochemical; settings: read-out: α-glucosidase inhibitory activity (IC50)
T1 construct: purchased Sigma Corporation G5003
T1 sequence (P53341 whole entry): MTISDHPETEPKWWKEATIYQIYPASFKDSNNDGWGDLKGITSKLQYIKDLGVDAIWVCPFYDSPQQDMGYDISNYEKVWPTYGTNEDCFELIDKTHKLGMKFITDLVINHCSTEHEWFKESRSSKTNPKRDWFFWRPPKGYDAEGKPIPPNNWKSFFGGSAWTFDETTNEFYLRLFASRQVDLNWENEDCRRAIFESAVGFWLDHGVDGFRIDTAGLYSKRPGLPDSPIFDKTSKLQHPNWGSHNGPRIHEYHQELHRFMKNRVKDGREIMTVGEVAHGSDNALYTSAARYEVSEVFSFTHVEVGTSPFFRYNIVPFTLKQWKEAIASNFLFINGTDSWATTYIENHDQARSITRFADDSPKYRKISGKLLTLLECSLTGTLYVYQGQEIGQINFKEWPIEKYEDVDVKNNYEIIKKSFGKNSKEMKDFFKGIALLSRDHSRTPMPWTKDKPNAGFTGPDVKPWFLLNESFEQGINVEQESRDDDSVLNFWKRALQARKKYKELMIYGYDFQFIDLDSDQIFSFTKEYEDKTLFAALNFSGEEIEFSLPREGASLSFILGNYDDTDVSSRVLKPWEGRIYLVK

aldose reductase = aldose reductase (Homo sapiens, UniProt P15121); experiment: aldose reductase inhibitory activity test in vitro; type: biochemical
Outline: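 Absorbance assay with 0.1 mM NADPH solution and enzyme preincubated with compound 10 min at room temperature, then 10 mM D,L-glyceraldehyde solution added as substrate. Incubation 30 min at 37 °C in PBS. Read-out is optical density at 340 nm, corrected with blank (no compound) and background (no substrate) wells.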

dipeptidyl peptidase-4 = biological target: T2, dipeptidyl peptidase-4 (Homo sapiens, UniProt P27487); experiment: dipeptidyl peptidase-4 inhibitory activity test in vitro (DPP-4 inhibitor screening kit); type: biochemical
T2 construct: purchased
T2 sequence (P27487 whole entry, species assumed): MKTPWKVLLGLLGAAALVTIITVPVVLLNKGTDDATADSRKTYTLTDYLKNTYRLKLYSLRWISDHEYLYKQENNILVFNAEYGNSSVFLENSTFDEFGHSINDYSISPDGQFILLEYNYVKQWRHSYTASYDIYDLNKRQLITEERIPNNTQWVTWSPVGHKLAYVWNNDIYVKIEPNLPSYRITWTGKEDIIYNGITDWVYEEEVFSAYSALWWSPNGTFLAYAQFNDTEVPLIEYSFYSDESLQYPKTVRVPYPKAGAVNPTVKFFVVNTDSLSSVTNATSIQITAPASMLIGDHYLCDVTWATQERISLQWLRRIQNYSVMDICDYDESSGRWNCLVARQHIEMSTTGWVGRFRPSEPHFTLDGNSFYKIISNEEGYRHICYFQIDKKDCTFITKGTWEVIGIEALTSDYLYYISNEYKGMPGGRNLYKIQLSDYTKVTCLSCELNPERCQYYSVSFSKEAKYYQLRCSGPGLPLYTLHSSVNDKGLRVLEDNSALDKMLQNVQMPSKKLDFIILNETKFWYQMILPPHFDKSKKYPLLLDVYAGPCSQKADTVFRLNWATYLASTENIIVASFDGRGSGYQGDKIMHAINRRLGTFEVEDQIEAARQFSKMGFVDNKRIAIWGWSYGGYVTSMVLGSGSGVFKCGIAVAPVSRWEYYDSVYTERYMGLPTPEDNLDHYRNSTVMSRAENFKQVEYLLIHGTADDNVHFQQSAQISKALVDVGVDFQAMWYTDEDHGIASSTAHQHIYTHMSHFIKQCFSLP
Text: The above compounds are detected by DPP-4 inhibitor screening kit.

normal mice = experiment: blood sugar of normal mice; type: in vivo, Kunming species mice; settings: 50 mg/kg intragastric, 10 days, fasted 10 hours
Method: Blood glucose determination kit (batch number 20140403) is purchased from Nanjing Jiancheng Bioengineering Institute.
Methods: after being acclimatized for 1 week, the 20±2 g Kunming species mice are randomly divided into 3 groups of 12 animals in each. 10 mg/ml extract solution of 0.1 ml (which corresponds to 50 mg/kg) is given to different groups of mice by intragastric administration for 10 days successively, and the control group is given with equal amounts of saline. After the last administration, the mice are fasted for 10 hours and blood is collected from orbit, then detect the blood sugar by blood glucose determination kit.

[1] = system: hyperglycemia KK-A^y mice; experiment: glucose tolerance test (OGTT) in hyperglycemia KK-A^y mice; type: in vivo; settings: OGTT 12th day, glucose 2.0 g/kg oral
Method: KK-A^y mice are purchased from Chinese Academy of Medical Sciences & Peking Union Medical College Institute of Animal Studies. Experiments are carried out after adapting to the environment (T=20-24° C., constant humidity: 50-60%, 12 hours light exposure (8:00-20:00), soundproof, free feeding and drinking) for 1 week. Glucometer is purchased from Roche.
Each group has 8 mice, and is administrated successively for 3 weeks. Model control group is given with equal amounts of 0.5% CMC-Na.
3) Glucose tolerance test (OGTT): glucose tolerance is detected at the 12th day after administration. The mice are fasted for 12 hours and blood is collected (0 h). After being given with glucose (2.0 g/kg) by oral administration, blood is collected from tip of tail to detect the blood sugar level after 30 min, 60 min and 120 min respectively (see table 11).

[2] = system: Wister rats fed with choline deficient diet; experiment: non-alcohol fatty liver disease in rats fed choline deficient (high-fat) diet; type: in vivo; settings: for ALT / HDL-C / LDL-C / Liver index / TC / TG: 4 weeks
Method: Serum total cholesterol kit (batch number 20131112), low density lipoprotein LDL-C kit (batch number 20140114), high density lipoprotein HDL-C kit (batch number 20140413), triglyceride TG kit (batch number 20131226) and glutamic-pyruvic transaminase ALT kit (batch number 20131006) are purchased from Nanjing Jiancheng Bioengineering Institute.
Methods: male SPF level Wister rats are randomly divided into groups: (1) normal group (2) model control group (3) which is administered by compound S13 with the dose of 10 mg/kg (4) which is administered by compound S13 with the dose of 20 mg/kg (5) which is administered by compound S28 with the dose of 10 mg/kg […] which is administered by compound S28 with the dose of 20 mg/kg. Each group has 10 mice. The mice of normal group are fed with standard diet, the mice of other groups are fed with choline deficient diet (high-fat diet). Food intake and body weight are detected. Feeding with choline deficient diet are considered as a frequently-used hepatic adipose infiltration modeling method of rodent, which can induce the denaturation of hepatocyte, hepatitis and liver injury, at the same time the increase of blood lipid level can induce the insulin resistance.
After being fed with high-fat diet for 8 weeks, the mice of treated group are given drugs for 4 weeks successively. Model group and normal group are given with equal amounts of 0.5% CMC-Na. After administration of medicine for 4 weeks, the rats are executed under anesthesia, and then hepatic tissue and blood are collected.
2) Contents of serum total cholesterol, low density lipoprotein, high density lipoprotein and triglyceride.
3) Contents of glutamic-pyruvic transaminase.

Row | Structure (SMILES) | IC50 (α-glucosidase) [µM] | IC50 (aldose reductase) [µM] | IC50 (dipeptidyl peptidase-4) [µM] | blood sugar (normal mice) [mmol/L] | glucose tolerance, blood sugar 0 min ([1]; 1 mg/kg, groups 3, 7) | glucose tolerance, blood sugar 0 min ([1]; 5 mg/kg, groups 4, 8) | glucose tolerance, blood sugar 0 min ([1]; 10 mg/kg, groups 5, 9) | glucose tolerance, blood sugar 0 min ([1]; 20 mg/kg, groups 6, 10) | glucose tolerance, blood sugar 30 min ([1]; 1 mg/kg, groups 3, 7) | glucose tolerance, blood sugar 30 min ([1]; 5 mg/kg, groups 4, 8) | glucose tolerance, blood sugar 30 min ([1]; 10 mg/kg, groups 5, 9) | glucose tolerance, blood sugar 30 min ([1]; 20 mg/kg, groups 6, 10) | glucose tolerance, blood sugar 60 min ([1]; 1 mg/kg, groups 3, 7) | glucose tolerance, blood sugar 60 min ([1]; 5 mg/kg, groups 4, 8) | glucose tolerance, blood sugar 60 min ([1]; 10 mg/kg, groups 5, 9) | glucose tolerance, blood sugar 60 min ([1]; 20 mg/kg, groups 6, 10) | glucose tolerance, blood sugar 120 min ([1]; 1 mg/kg, groups 3, 7) | glucose tolerance, blood sugar 120 min ([1]; 5 mg/kg, groups 4, 8) | glucose tolerance, blood sugar 120 min ([1]; 10 mg/kg, groups 5, 9) | glucose tolerance, blood sugar 120 min ([1]; 20 mg/kg, groups 6, 10) | also measured
1 | CC(C)=CCC/C(C)=C/CCC1=C[C@H](c2cc(O)ccc2O)OC1=O [S13, (R,E)-5-(2,5-dihydroxyphenyl)-3-(4,8-dimethylnona-3,7-dien-1-yl)furan-2(5H)-one] | 0.27 | 1.8 | 4.5 | 4.21 | 9.6 | 6.9* | 7.96 | 6.90* | 12.5** | 9.1** | 16.95** | 14.00** | 10.2** | 9.1** | 13.20** | 12.45** | 8.2** | 5.2** | 10.93** | 11.90** | effect on liver index of fatty liver rats (in words) [2]: effectively decrease the liver index of fatty liver rats; ALT ([2]; 10 mg/kg): 48.24** U/L; HDL-C ([2]; 10 mg/kg): 0.57* mmol/L; LDL-C ([2]; 10 mg/kg): 0.83* mmol/L; Liver index ([2]; 10 mg/kg): 2.85**; TC ([2]; 10 mg/kg): 1.81** mmol/L; TG ([2]; 10 mg/kg): 1.21** mmol/L; ALT ([2]; 20 mg/kg): 33.56** U/L; HDL-C ([2]; 20 mg/kg): 0.72** mmol/L; LDL-C ([2]; 20 mg/kg): 0.71** mmol/L; Liver index ([2]; 20 mg/kg): 2.47**; TC ([2]; 20 mg/kg): 1.37** mmol/L; TG ([2]; 20 mg/kg): 1.08** mmol/L
2 | CC(C)=CCC/C(C)=C/CCC1=C[C@@H](c2cc(O)ccc2O)OC1=O [S28, (S,E)-5-(2,5-dihydroxyphenyl)-3-(4,8-dimethylnona-3,7-dien-1-yl)furan-2(5H)-one] | 0.42 | 1.6 | 6.8 | 4.02 | 9.5 | 6.8** | 7.6* | 6.9** | 11.3** | 9.3** | 16.9** | 14.3** | 10.5** | 9.3** | 13.2** | 12.4** | 8.3** | 5.1** | 10.9** | 11.9** | effect on liver index of fatty liver rats (in words) [2]: effectively decrease the liver index of fatty liver rats; ALT ([2]; 10 mg/kg): 45.97** U/L; HDL-C ([2]; 10 mg/kg): 0.61** mmol/L; LDL-C ([2]; 10 mg/kg): 0.79** mmol/L; Liver index ([2]; 10 mg/kg): 2.91**; TC ([2]; 10 mg/kg): 1.95** mmol/L; TG ([2]; 10 mg/kg): 1.38** mmol/L; ALT ([2]; 20 mg/kg): 41.08** U/L; HDL-C ([2]; 20 mg/kg): 0.68** mmol/L; LDL-C ([2]; 20 mg/kg): 0.70** mmol/L; Liver index ([2]; 20 mg/kg): 2.58**; TC ([2]; 20 mg/kg): 1.36** mmol/L; TG ([2]; 20 mg/kg): 1.15** mmol/L
